The subject of experiment [1] is AGS. Briefly: Antiproliferative activity against human AGS cells assessed as inhibition of cell growth incubated for 24 hrs by MTT reagent based microplate reader assay. Type of experiment: functional. In general terms: Tetrazolium dyes change colour on reduction, which living cells bring about.
The subject of experiment [2] is MKN-28. The experiment is described as follows: Antiproliferative activity against human MKN-28 cells assessed as inhibition of cell growth incubated for 24 hrs by MTT reagent based microplate reader assay. The format is functional. Particulars: MKN-28, 24 h.
Experiment [3] deals with MKN-45. Briefly: Antiproliferative activity against human MKN-45 cells assessed as inhibition of cell growth incubated for 24 hrs by MTT reagent based microplate reader assay. The format is functional. The following applies: MKN-45, 24 h.
A short description of experiment [4]: Antiproliferative activity against human SNU-216 cells assessed as inhibition of cell growth incubated for 24 hrs by MTT reagent based microplate reader assay. The format is functional. The following applies: SNU-216, 24 h.
Experiment [5] is described as follows: Antiproliferative activity against human SNU-484 cells assessed as inhibition of cell growth incubated for 24 hrs by MTT reagent based microplate reader assay. Particulars: SNU-484, 24 h. The format is functional.
Experiment [6] relates to NCI-N87. Briefly: Antiproliferative activity against human NCI-N87 cells assessed as inhibition of cell growth incubated for 24 hrs by MTT reagent based microplate reader assay. The format is functional. Particulars: NCI-N87, 24 h.
A short description of experiment [7]: Antiproliferative activity against human YCC-1 cells assessed as inhibition of cell growth incubated for 24 hrs by MTT reagent based microplate reader assay. The format is functional. Particulars: YCC-1, 24 h.
Experiment [8] can be described thus: Antiproliferative activity against human YCC-6 cells assessed as inhibition of cell growth incubated for 24 hrs by MTT reagent based microplate reader assay. Type of experiment: functional. The following applies: YCC-6, 24 h.
The nature of experiment [9]: Antiproliferative activity against human YCC-16 cells assessed as inhibition of cell growth incubated for 24 hrs by MTT reagent based microplate reader assay. Type of experiment: functional. Particulars: YCC-16, 24 h.
For experiment [10], the system named is HepG2. The experiment is described as follows: Antiproliferative activity against human HepG2 cells assessed as inhibition of cell growth incubated for 24 hrs by MTT reagent based microplate reader assay. Type of experiment: functional. The following applies: HepG2, 24 h.
Experiment [11] relates to Hep 3B2. The experiment is described as follows: Antiproliferative activity against human Hep3B cells assessed as inhibition of cell growth incubated for 24 hrs by MTT reagent based microplate reader assay. The format is functional.
The subject of experiment [12] is Huh-7. The experiment is described as follows: Antiproliferative activity against human Huh-7 cells assessed as inhibition of cell growth incubated for 24 hrs by MTT reagent based microplate reader assay. The format is functional. Particulars: Huh-7, 24 h.
The test system of experiment [13] is HeLa. Briefly: Cytotoxicity against human HeLa cells incubated for 48 hrs by MTT microplate reader assay. The format is functional, cell-based.
Experiment [14] deals with A549. The experiment is described as follows: Cytotoxicity against human A549 cells assessed as reduction in cell viability incubated for 24 hrs by MTT assay. The following applies: A549, 24 h. The format is functional, cell-based.
Experiment [15] deals with HeLa. The experiment is described as follows: Cytotoxicity against human HeLa cells assessed as reduction in cell viability incubated for 24 hrs by MTT assay. Type of experiment: functional, cell-based.
Experiment [16] concerns MCF7. Briefly: Cytotoxicity against human MCF7 cells assessed as reduction in cell viability incubated for 24 hrs by MTT assay. Type of experiment: functional, cell-based. The following applies: MCF7, 24 h.
Experiment [17] relates to A549. The experiment is described as follows: Antiproliferative activity against human A549 cells assessed as inhibition of cell growth by MTT assay. Type of experiment: functional, cell-based.
A short description of experiment [18]: Cytotoxicity against human NCI-H358M cells incubated for 72 hrs by MTT assay. Type of experiment: functional, cell-based.
Experiment [19] concerns OVCAR-8. Briefly: Cytotoxicity against human OVCAR-8 cells incubated for 72 hrs by MTT assay. The format is functional, cell-based. Particulars: OVCAR-8, 72 h.
For experiment [20], the system named is PC-3M. The experiment is described as follows: Cytotoxicity against human PC-3M cells incubated for 72 hrs by MTT assay. Type of experiment: functional, cell-based.
The test system of experiment [21] is AGS. Briefly: Cytotoxicity against human AGS cells incubated for 72 hrs by MTT assay. The format is functional, cell-based.
The test system of experiment [22] is SK-MES-1. Briefly: Cytotoxicity against human SK-MES-1 cells incubated for 72 hrs by MTT assay. The format is functional, cell-based. The following applies: SK-MES-1, 72 h.
For experiment [23], the system named is J82. Briefly: Cytotoxicity against human J82 cells incubated for 72 hrs by MTT assay. The following applies: J82, 72 h. The format is functional, cell-based.
Experiment [24] concerns HT-29. The experiment is described as follows: Cytotoxicity against human HT-29 cells assessed as inhibition of cell growth incubated upto 72 hrs by MTT assay. Particulars: HT-29, 72 h. Type of experiment: functional, cell-based.
In experiment [25] the test system is SW480. The experiment is described as follows: Cytotoxicity against human SW480 cells assessed as inhibition of cell growth incubated upto 72 hrs by MTT assay. Type of experiment: functional, cell-based. The following applies: SW480, 72 h.
Experiment [26] deals with HepG2. Briefly: Cytotoxicity against human HepG2 cells assessed as inhibition of cell growth incubated upto 72 hrs by MTT assay. The format is functional, cell-based. Particulars: HepG2, 72 h.
Experiment [27] relates to HL-60. The experiment is described as follows: Cytotoxicity against human HL-60 cells assessed as inhibition of cell growth incubated upto 72 hrs by MTT assay. Type of experiment: functional, cell-based. Particulars: HL-60, 72 h.
In experiment [28] the test system is MCF7. The experiment is described as follows: Cytotoxicity against human MCF7 cells assessed as inhibition of cell growth incubated upto 72 hrs by MTT assay. The format is functional, cell-based. Particulars: MCF7, 72 h.
The subject of experiment [29] is HL-60. The experiment is described as follows: Cytotoxicity against human HL-60 cells assessed as reduction in cell growth incubated for 48 hrs by MTT assay. Type of experiment: functional, cell-based. The following applies: HL-60, 48 h.
Experiment [30] concerns HCT-116. Briefly: Antiproliferative activity against human HCT-116 cells assessed as inhibition of cell growth incubated for 24 hrs by BrdU incorporation assay. Particulars: HCT-116, 24 h. Type of experiment: functional, cell-based. (In general: Uptake of a labelled nucleoside into DNA is a usual measure of proliferation.)
Experiment [31] concerns HT-29. The experiment is described as follows: Antiproliferative activity against human HT-29 cells assessed as inhibition of cell growth incubated for 24 hrs by BrdU incorporation assay. Type of experiment: functional, cell-based. Particulars: HT-29, 24 h.
Experiment [32] relates to DU-145. The experiment is described as follows: Cytotoxicity against human DU-145 cells incubated for 48 hrs by MTT assay. Type of experiment: functional, cell-based. Particulars: DU-145, 48 h.
Experiment [33] has as its system MCF7. Briefly: Cytotoxicity against human MCF7 cells incubated for 48 hrs by MTT assay. The following applies: MCF7, 48 h. Type of experiment: functional, cell-based.
For experiment [34], the system named is MCF7. The experiment is described as follows: Cytotoxicity against human MCF7 cells incubated for 72 hrs. Type of experiment: functional, cell-based. The following applies: MCF7, 72 h.

≈ marks a conversion by molar mass, not a printed value.

As usually defined, the IC50 is the concentration that gives 50% inhibition.

As to `COc1ccc(OC)c2c1C(=O)C=C(Sc1ccc3ccccc3c1)C2=O`, the IC50 in experiment [1] turned out to be 420 nM; in experiment [2], 1200 nM; in experiment [3] it was 820 nM; in [4] it was 890 nM; in [5], 1440 nM; in experiment [6], 1530 nM. Further, the IC50 in [7] is 1300 nM; in experiment [8] it was 800 nM; in experiment [9], 1580 nM; in experiment [10] it was 870 nM; in experiment [11], 900 nM; in experiment [12] it was 2840 nM.

With `COc1ccc(C(C2=C(O)C(=O)c3ccccc3C2=O)c2c(C)[nH]n(-c3ccccc3)c2=O)c(O)c1` (centres undefined), in experiment [13], the IC50 was 2900 nM.

On to `O=C(Nc1ccc(S(=O)(=O)c2ccc(NC3=C(Sc4ccccc4)C(=O)c4ccccc4C3=O)cc2)cc1)c1cc(Cl)cc(Cl)c1`, for which the IC50 amounted to 1980 nM in [14], 1170 nM in [15] and 50 nM in experiment [16].

In the case of `CC(=O)NCC1=C(Nc2ccc(O)c(C)c2)C(=O)c2ccccc2C1=O`, the IC50 in experiment [17] came out at 3 µg/mL (≈ 8.56 µM).

As to `CC1(O)CCC(C#CC2=C(C#CC3CCC(C)(O)CC3)C(=O)c3ccccc3C2=O)CC1` (centres undefined), the values for the IC50 in [18], in experiment [19] and in experiment [20] were 2980 nM, 2280 nM and 4.28 µM, respectively.

Consider `CCCCCC(=O)C1=C(/C(C(=O)OC)=C(\C)NC(Cc2c[nH]c3ccccc23)C(=O)OC)C(=O)c2ccccc2C1=O` (centres undefined), for which the half-inhibitory concentration (IC50) was 9.3 µM in experiment [21], 5.5 µM in experiment [22] and 4.5 µM in experiment [23].

For the compound `CC(C)=CCC/C(C)=C/CC/C(C)=C/CC1=C(O)C(=O)c2ccccc2C1=O`, the IC50 was found to be 1990 nM in [24]; 2020 nM in [25]; 14 µM in experiment [26]; 5.41 µM in experiment [27]; 47 µM in experiment [28].

For the compound `CC(=O)N[C@H]1[C@H](OC2=C(CC=C(C)C)C(=O)c3ccccc3C2=O)O[C@H](COC(C)=O)[C@@H](OC(C)=O)[C@@H]1OC(C)=O`, the IC50 in experiment [29] was determined as 5.3 µM.

With `O=C1C(Cl)=C(Oc2ccc(-c3oc4cc(O)cc(O)c4c(=O)c3O)cc2O)C(=O)c2ccccc21`, the IC50 came to 10.3 µM in experiment [30] and 23.2 µM in experiment [31].

Regarding `COc1cc(N)cc(OC)c1C1=C(C(C)=O)C(=O)c2ccccc2C1=O`, the results for the IC50 in experiment [32] and in [33] were 12.3 µM and 21.2 µM, respectively.

In turn, `CCC/C=C/C(=O)C1=C(OC)C(=O)c2cc(OC)c(OC)cc2C1=O` displayed an IC50 in experiment [34] of 15 µM.
